The text below walks through data of patent US20090099158A1, “TETRAHYDROISOQUINOLINE COMPOUNDS AS MODULATORS OF THE HISTAMINE H3 RECEPTOR” (priority 2007, published 2009).

Structures are written as SMILES.

T1 sequence (Q9Y5N1 whole entry): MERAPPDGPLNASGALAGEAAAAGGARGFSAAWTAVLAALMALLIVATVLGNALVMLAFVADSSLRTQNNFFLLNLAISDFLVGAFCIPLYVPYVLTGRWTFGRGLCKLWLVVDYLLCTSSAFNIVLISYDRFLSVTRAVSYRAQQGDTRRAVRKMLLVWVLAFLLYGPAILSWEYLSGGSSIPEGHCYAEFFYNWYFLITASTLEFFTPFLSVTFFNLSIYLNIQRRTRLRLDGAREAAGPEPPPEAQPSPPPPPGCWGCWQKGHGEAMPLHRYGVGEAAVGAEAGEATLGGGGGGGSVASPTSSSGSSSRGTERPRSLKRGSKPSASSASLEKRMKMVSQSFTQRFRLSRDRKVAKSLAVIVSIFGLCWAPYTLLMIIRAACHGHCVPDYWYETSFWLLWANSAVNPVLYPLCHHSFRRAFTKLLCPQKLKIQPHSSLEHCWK

This assay has as its target T1, cloned human H3 receptors (Homo sapiens, UniProt Q9Y5N1).
T1 construct: expressed in transfected cells; host or cells: SK-N-MC cells
In words: H3 Receptor Binding (Human). The following applies: cloned human H3 receptors stably expressed in SK-N-MC cells; average of the results obtained. On the procedure: Binding of compounds to the cloned human H3 receptors, stably expressed in SK-N-MC cells, was performed as described by Barbier, A. J. et al. (Br. J. Pharmacol. 2004, 143(5), 649-661). Data for compounds tested in this assay are presented in Table 1 as an average of the results obtained.
For orientation: Ki means the dissociation constant of the complex between target and ligand, obtained from inhibition or displacement. A lower Ki goes with a stronger hold on the target. Take `O=C(Cc1ccccc1)N1CCc2cc(C(=O)N3CCN(C4CCC4)CC3)ccc2C1` [Example 129, 1-[6-(4-Cyclobutyl-piperazine-1-carbonyl)-3,4-dihydro-1H-isoquinolin-2-yl]-2-phenyl-ethanone]: the Ki worked out at 18 nM.
`O=C(c1ccc2c(c1)CCNC2)N1CCN2CCCCC2C1` (centres unmarked) [Example 10, (Octahydro-pyrido[1,2-a]pyrazin-2-yl)-(1,2,3,4-tetrahydro-isoquinolin-6-yl)-methanone] had a Ki of 16 nM.
`CN(C)c1cccc(C(=O)N2CCc3cc(C(=O)N4CCN(C5CCC5)CC4)ccc3C2)c1` [Example 116, [6-(4-Cyclobutyl-piperazine-1-carbonyl)-3,4-dihydro-1H-isoquinolin-2-yl]-(3-dimethylamino-phenyl)-methanone] showed a Ki of 18 nM.
In turn, `Cc1ccc(C(=O)N2CCc3cc(C(=O)N4CCN(C5CCCCC5)CC4)ccc3C2)cc1` [Example 83, (4-Cyclohexyl-piperazin-1-yl)-[2-(4-methyl-benzoyl)-1,2,3,4-tetrahydro-isoquinolin-6-yl]-methanone] yielded an inhibitory constant (Ki) of 257 nM.
The result for `O=C(c1ccc2c(c1)CCN(C(=O)c1cccc(F)c1)C2)N1CCN(C2CCCCC2)CC1` [Example 73, (4-Cyclohexyl-piperazin-1-yl)-[2-(3-fluoro-benzoyl)-1,2,3,4-tetrahydro-isoquinolin-6-yl]-methanone] reads 109 nM.
With `O=C(c1ccc2c(c1)CCN(C(=O)c1ccc(F)c(O)c1)C2)N1CCCN(C2CCC2)CC1` [Example 141, [6-(4-Cyclobutyl-[1,4]diazepane-1-carbonyl)-3,4-dihydro-1H-isoquinolin-2-yl]-(4-fluoro-3-hydroxy-phenyl)-methanone], the Ki was found to be 1 nM. Compared with the last molecule, the Ki is about 110-fold lower.
Molecule `O=C(c1ccc2c(c1)CCN(C(=O)c1ccoc1)C2)N1CCN(C2CCC2)CC1` [Example 44, [6-(4-Cyclobutyl-piperazine-1-carbonyl)-3,4-dihydro-1H-isoquinolin-2-yl]-furan-3-yl-methanone] showed a Ki of 19 nM.
In turn, `CC(C)N1CCc2cc(C(=O)N3CCC(C(C)(C)O)CC3)ccc2C1` [Example 178, [4-(1-Hydroxy-1-methyl-ethyl)-piperidin-1-yl]-(2-isopropyl-1,2,3,4-tetrahydro-isoquinolin-6-yl)-methanone] had a Ki of 3300 nM.
The result for `CC(C)(O)C1CCN(C(=O)c2ccc3c(c2)CCN(C2CCCC2)C3)CC1` [Example 194, (2-Cyclopentyl-1,2,3,4-tetrahydro-isoquinolin-6-yl)-[4-(1-hydroxy-1-methyl-ethyl)-piperidin-1-yl]-methanone] reads 2700 nM; that for `CC(C)N1CCc2cc(C(=O)N3CCOCC3)ccc2C1` [Example 174, (2-Isopropyl-1,2,3,4-tetrahydro-isoquinolin-6-yl)-morpholin-4-yl-methanone], 2140 nM; that for `Cc1ccccc1C(=O)N1CCc2cc(C(=O)N3CCN4CCCCC4C3)ccc2C1` (centres unmarked) [Example 96, [2-(2-Methyl-benzoyl)-1,2,3,4-tetrahydro-isoquinolin-6-yl]-(octahydro-pyrido[1,2-a]pyrazin-2-yl)-methanone], 15 nM.
`O=C(c1ccc2c(c1)CCN(C(=O)c1ccc(O)cc1)C2)N1CCN(C2CCC2)CC1` [Example 123, [6-(4-Cyclobutyl-piperazine-1-carbonyl)-3,4-dihydro-1H-isoquinolin-2-yl]-(4-hydroxy-phenyl)-methanone] showed a Ki of 16 nM.
Take `O=C(c1ccc2c(c1)CCN(C(=O)c1ccc(Cl)cc1Cl)C2)N1CCN(C2CCC2)CC1` [Example 118, [6-(4-Cyclobutyl-piperazine-1-carbonyl)-3,4-dihydro-1H-isoquinolin-2-yl]-(2,4-dichloro-phenyl)-methanone]: the Ki was 8 nM.
Then `N#Cc1cccc(C(=O)N2CCc3cc(C(=O)N4CCC[C@H]4CN4CCCC4)ccc3C2)c1` [Example 52, (S)-3-[6-(2-Pyrrolidin-1-ylmethyl-pyrrolidine-1-carbonyl)-3,4-dihydro-1H-isoquinoline-2-carbonyl]-benzonitrile], with 15 nM; and `CN(C)[C@H]1CCN(C(=O)c2ccc3c(c2)CCN(C(=O)C2CCCCC2)C3)C1` [Example 156, (S)-Cyclohexyl-[6-(3-dimethylamino-pyrrolidine-1-carbonyl)-3,4-dihydro-1H-isoquinolin-2-yl]-methanone], with 30 nM.
In turn, `O=C(c1ccccc1)N1CCc2cc(C(=O)N3CCN4CCCCC4C3)ccc2C1` (centres unmarked) [Example 99, (2-Benzoyl-1,2,3,4-tetrahydro-isoquinolin-6-yl)-(octahydro-pyrido[1,2-a]pyrazin-2-yl)-methanone] showed a Ki of 20 nM.
The result for `O=C(c1ccc2c(c1)CCN(C(=O)c1ccc(F)c(Cl)c1)C2)N1CCCN(C2CCC2)CC1` [Example 145, (3-Chloro-4-fluoro-phenyl)-[6-(4-cyclobutyl-[1,4]diazepane-1-carbonyl)-3,4-dihydro-1H-isoquinolin-2-yl]-methanone] reads 1 nM; that for `O=C(c1ccc2c(c1)CCNC2)N1CCN(C2CCCCC2)CC1` [Example 9, (4-Cyclohexyl-piperazin-1-yl)-(1,2,3,4-tetrahydro-isoquinolin-6-yl)-methanone], 14 nM; that for `O=C(c1ccc2c(c1)CCN(C(=O)c1cccc(F)c1)C2)N1CCN(C2CCC2)CC1` [Example 62, (4-Cyclobutyl-piperazin-1-yl)-[2-(3-fluoro-benzoyl)-1,2,3,4-tetrahydro-isoquinolin-6-yl]-methanone], 24 nM.
In the case of `CCCN1CCc2cc(C(=O)N3CCC(C(C)(C)C)CC3)ccc2C1` [Example 182, (4-tert-Butyl-piperidin-1-yl)-(2-propyl-1,2,3,4-tetrahydro-isoquinolin-6-yl)-methanone], the affinity corresponds to a Ki of 340 nM.
For the molecule `CC(C)N1CCN(C(=O)c2ccc3c(c2)CCN(Cc2ccc(C(F)(F)F)cc2)C3)CC1` [Example 20, (4-Isopropyl-piperazin-1-yl)-[2-(4-trifluoromethyl-benzyl)-1,2,3,4-tetrahydro-isoquinolin-6-yl]-methanone], the Ki stood at 19 nM.
With `O=C(c1ccc2c(c1)CCN(C1CCC1)C2)N1CCCN(C2CCC2)CC1` [Example 189, (4-Cyclobutyl-[1,4]diazepan-1-yl)-(2-cyclobutyl-1,2,3,4-tetrahydro-isoquinolin-6-yl)-methanone], the affinity corresponds to a Ki of 1 nM.
`O=C(c1ccc2c(c1)CCN(C(=O)c1ccc(F)cc1F)C2)N1CCN(C2CCC2)CC1` [Example 126, (4-Cyclobutyl-piperazin-1-yl)-[2-(2,4-difluoro-benzoyl)-1,2,3,4-tetrahydro-isoquinolin-6-yl]-methanone] registered a Ki of 9 nM. Compared with the last molecule, the Ki is about 9-fold higher.
The molecule `O=C(c1ccc2c(c1)CCN(C(=O)c1ccc(Cl)c(Cl)c1)C2)N1CCN(C2CCC2)CC1` [Example 114, (4-Cyclobutyl-piperazin-1-yl)-[2-(3,4-dichloro-benzoyl)-1,2,3,4-tetrahydro-isoquinolin-6-yl]-methanone] had a Ki of 13 nM.
Then `CC(C)(C)OC(=O)N1CCc2cc(C(=O)N3CCN(C4CCCCC4)CC3)ccc2C1` [Example 3, 6-(4-Cyclohexyl-piperazine-1-carbonyl)-3,4-dihydro-1H-isoquinoline-2-carboxylic acid tert-butyl ester], with 165 nM; and `O=C(c1ccc2c(c1)CCN(C(=O)c1ccc(F)cc1)C2)N1CCN(C2CCCCC2)CC1` [Example 74, (4-Cyclohexyl-piperazin-1-yl)-[2-(4-fluoro-benzoyl)-1,2,3,4-tetrahydro-isoquinolin-6-yl]-methanone], with 109 nM.
